Holding throughout (test): growth of human tumour cells (NCI), 48 h
Test [1] has as its system CAKI-1 renal.
In test [2] the test system is HOP-92 NSCLC.
The test system of test [3] is HT29 colon.
Test [4] deals with IGROV1 ovarian.
Test [5] relates to K-562 leukemia.
Test [6] concerns KM12 colon.
Test [7] deals with LOX IMVI melanoma.
Test [8] relates to RXF 393 renal.
For test [9], the system named is SK-OV-3 ovarian.
Test [10] relates to SN12C renal.

SMILES strings stand for the structures.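 96-well plates; 48 h exposure; 5 concentrations. Endpoints by linear interpolation between flanking doses. Not reached: highest tested concentration assigned. GI50: concentration for 50% inhibition of growth. TGI marks complete inhibition of growth.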

As to `COc1ccc(-c2ccc(OC)c(OC)c2OC)cc1`, the GI50 in test [1] was 1.77 µM; in [2], 1.32 µM; in test [3] it was 0.529 µM; in test [4], 4.08 µM; in test [5] it was 0.431 µM; in test [6], 0.767 µM. Moreover, the GI50 in test [7] was 2.82 µM; in test [8] it was 2.83 µM; in test [9] it was 2.63 µM; in test [10] it was 6.88 µM. Besides, the TGI in test [1] is more than 100 µM; in test [2], 63 µM; in test [3] it was more than 100 µM; in test [4], more than 100 µM; in test [5], more than 100 µM; in [6], more than 51.8 µM. Moreover, the TGI in test [7] is more than 100 µM; in test [8], more than 100 µM; in test [9] it was 62 µM; in test [10], more than 100 µM.

With `Cc1n[nH]c2ccccc2c1=O`, the TGI in test [1], in [2], in test [3], in test [4], in test [5] and in test [6] was more than 100 µM throughout. Further, the TGI in test [7], in test [8], in test [9] and in test [10] was more than 100 µM throughout.

Consider `O=c1c(Cc2ccccc2)c(O)cc2n1CCC2`, for which the TGI in [1], in test [2], in test [3], in test [4], in [5] and in test [6] was more than 100 µM throughout. The TGI in test [7], in test [8], in test [9] and in [10] was more than 100 µM in each case.

`O=C1NC(O)n2c(=O)[nH]c(=O)n21` (stereo not given): the TGI in test [1], in [2], in [3], in test [4], in test [5] and in test [6] was more than 100 µM each time. Further, the TGI in [7], in test [8], in test [9] and in test [10] was more than 100 µM in each case.

Consider `O=C1NC(=NCCc2ccc(Cl)cc2)S/C1=C\c1ccc2ncccc2c1`, for which the GI50 in [1] is more than 19.5 µM; in [2] it was 7.32 µM; in test [3], more than 13 µM; in test [4] it was 17.6 µM; in test [5], more than 25 µM; in test [6], more than 23 µM. Also, the GI50 in test [7] was more than 20.9 µM; in test [8], 11 µM; in test [9] it was 17.5 µM; in test [10], more than 25 µM. The TGI in test [1], in test [2], in [3], in test [4], in test [5] and in test [6] was more than 25 µM throughout. The TGI in [7], in [8], in test [9] and in test [10] was more than 25 µM throughout.

For the molecule `OCc1ccc(N(Cc2ccc(F)cc2)Cc2ccc(F)cc2)cc1Cl`, the GI50 in [1] was 1.7 µM; in test [2], 2.21 µM; in test [3], 9.66 µM; in [4], 2.08 µM; in test [5], 4.93 µM; in [6], 10.5 µM. In addition, the GI50 in [7] is 9.51 µM; in [8], 12.7 µM; in test [9], 13.6 µM; in test [10] it was 11.5 µM. The TGI in test [1] turned out to be 5.87 µM; in test [2] it was 10.2 µM; in [3] it was 23.3 µM; in test [4] it was 8.07 µM; in test [5] it was 23.1 µM; in test [6], 23.8 µM. For the same molecule, the TGI came to 23.3 µM in test [7], 26.3 µM in test [8], 26.5 µM in test [9] and 26 µM in [10].

For `COc1ccc(-n2c(=S)sc3c(Cl)nc(C)nc32)c(OC)c1`, the GI50 is 6.16 µM in test [1]; 2.06 µM in test [2]; 2.41 µM in [3]; 1.93 µM in test [4]; 1.19 µM in [5]; 3.33 µM in test [6]. Besides, the GI50 in test [7] is 1.71 µM; in test [8] it was 2 µM; in [9], 14.3 µM; in [10], 2.85 µM. Moreover, the TGI in [1] worked out at 19.3 µM; in test [2], 8.46 µM; in test [3], 6.28 µM; in test [4] it was 3.99 µM; in test [5] it was 3.79 µM; in test [6] it was 11.5 µM. The TGI in [7] came to 3.19 µM; in test [8] it was 4.07 µM; in [9], 27.3 µM; in test [10] it was 9.14 µM.

Consider `COc1cc(/C=N/NC(=O)c2cnn3c2NC(c2ccccc2)C3)ccc1OC1CCCC1` (stereo not given), for which the GI50 in test [1] was 0.556 µM; in [2], 0.684 µM; in [3], 0.467 µM; in test [4] it was 0.723 µM; in test [5], 0.348 µM; in test [6], 0.39 µM. Further, the GI50 in test [7] is 0.581 µM; in [8], 0.357 µM; in [9] it was 1.57 µM; in test [10] it was 1.85 µM. Further, the TGI in test [1] was 5.01 µM; in test [2], 3.69 µM; in [3], 8.55 µM; in [4] it was 9.4 µM; in [5], more than 30.4 µM; in test [6], 4.46 µM. Moreover, the TGI was 2.21 µM in test [7], 1.47 µM in test [8], 8.49 µM in test [9] and 9.61 µM in [10].

The values are drawn from PubChem BioAssay (NCI).
